Tests used:
human cathepsin K = human cathepsin K (UniProt P43236); assay: Cathepsin K Assay (hrbCat K); format: biochemical; conditions: Z-Leu-Arg-AMC substrate, pH 5.5, 15 min preincubation; read-out: hrbCat K (IP (nM))
Procedure, shortened: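 Human cathepsin K (0.4 nM) was preincubated 15 min at room temperature with compound in 50 mM MES pH 5.5, 2.5 mM EDTA, 2.5 mM DTT and 10% DMSO. Inhibition was fitted to a dose-response model.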

human cathepsin F = target: T1, human cathepsin F (Homo sapiens, UniProt Q9UBX1); assay: Cathepsin F assay (hCat F); format: biochemical; conditions: Z-Phe-Arg-AMC substrate, pH 5.5, 15 min preincubation; read-out: hCat F (IP (nM))
T1 sequence (Q9UBX1 271-484): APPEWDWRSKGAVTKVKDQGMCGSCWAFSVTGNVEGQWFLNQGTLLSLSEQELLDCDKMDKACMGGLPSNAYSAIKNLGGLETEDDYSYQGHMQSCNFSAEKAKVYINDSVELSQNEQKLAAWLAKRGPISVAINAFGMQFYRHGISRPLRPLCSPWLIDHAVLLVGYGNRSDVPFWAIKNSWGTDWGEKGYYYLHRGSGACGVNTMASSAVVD
Procedure, shortened: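 Enzyme (10 nM) was preincubated 15 min at room temperature with compounds (1/3 DMSO dilution series, 500–0.025 μM) in 50 mM MES pH 5.5, 2.5 mM EDTA, 2.5 mM DTT, 10% DMSO. Z-Phe-Arg-AMC (8 μM) was added and AMC fluorescence (Ex 360/Em 460 nm) followed for 20 min. % inhibition was fitted to dose-response curves.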

Row | SMILES | IC50 (human cathepsin K) [nM] | IC50 (human cathepsin F) [nM]
1 | N#CC1(NC(=O)[C@@H]2C[C@@H](F)CC[C@H]2c2nc(-c3ccc(F)cn3)sc2-c2ccc(N3CCS(=N)(=O)CC3)cc2)CC1 [Example 141, (1R,2R,5S)-N-(1-cyanocyclopropyl)-5-fluoro-2-(2-(5-fluoropyridin-2-yl)-5-(4-(1-imino-1-oxidothiomorpholino)phenyl)thiazol-4-yl)cyclohexane-carboxamide] | 2.3 | 1000
2 | CC1(C)CN(c2nc([C@@H]3CCCC[C@H]3C(=O)NC3(C#N)CC3)c(-c3ccc(N4CCS(=O)(=O)CC4)cc3)s2)CCO1 [Example 142, (1R,2R)-N-(1-cyanocyclopropyl)-2-(2-(2,2-dimethylmorpholino)-5-(4-(1,1-dioxidothiomorpho-lino)phenyl)thiazol-4-yl)cyclohexane-carboxamide] | 5.8 | 3400
3 | CNC(=O)N1CC(c2ccc(-c3sc(-c4ccc(F)cc4)nc3[C@@H]3CCCC[C@H]3C(=O)NC3(C#N)CC3)cc2)C1 [Example 143, 3-(4-(4-((1R,2R)-2-((1-cyanocyclopropyl)carbamoyl)cyclohex-yl)-2-(4-fluorophenyl)thiazol-5-yl)phenyl)-N-methylazetidine-1-carboxamide] | 2 | 134
4 | N#CC1(NC(=O)[C@@H]2CCCC[C@H]2c2nc(N3CCO[C@@H](C(F)(F)F)C3)sc2-c2ccc(N3CCS(=O)(=O)CC3)cc2)CC1 [Example 144, (1R,2R)-N-(1-cyanocyclopropyl)-2-(5-(4-(1,1-dioxidothiomorpho-lino)phenyl)-2-((R)-2-(trifluoromethyl)morpholino)thiazol-4-yl)cyclohexane-carboxamide] | 3.3 | 5280
5 | N#CC1(NC(=O)[C@@H]2CCCC[C@H]2c2nc(N3CCO[C@H](C(F)(F)F)C3)sc2-c2ccc(N3CCS(=O)(=O)CC3)cc2)CC1 [Example 145, (1R,2R)-N-(1-cyanocyclopropyl)-2-(5-(4-(1,1-dioxidothiomorpho-lino)phenyl)-2-((S)-2-(trifluoromethyl)morpholino)thiazol-4-yl)cyclohexane-carboxamide] | 4.3 | 7050
6 | N#CC1(NC(=O)[C@@H]2CCCC[C@H]2c2nc(C3CCCOC3)sc2-c2ccc(N3CCS(=O)(=O)CC3)cc2)CC1 (stereo partly drawn) [Example 146, (1R,2R)-N-(1-cyanocyclopropyl)-2-(5-(4-(1,1-dioxidothiomorpho-lino)phenyl)-2-(tetrahydro-2H-pyran-3-yl)thiazol-4-yl)cyclohexane-carboxamide] | 4.6 | 1000
7 | N#CC1(NC(=O)[C@@H]2CCCC[C@H]2c2nc([C@@H]3CCCCO3)sc2-c2ccc(N3CCS(=O)(=O)CC3)cc2)CC1 [Example 149, (1R,2R)-N-(1-cyanocyclopropyl)-2-(5-(4-(1,1-dioxidothiomorpho-lino)phenyl)-2-((S)-tetrahydro-2H-pyran-2-yl)thiazol-4-yl)cyclohexane-carboxamide] | 3.6 | 7560
8 | N#CC1(NC(=O)[C@@H]2CCCC[C@H]2c2nc(-c3ccc(F)cc3)sc2-c2ccc(C3CN(C(=O)NCC(F)(F)F)C3)cc2)CC1 [Example 150, 3-(4-(4-((1R,2R)-2-((1-cyanocyclopropyl)carbamoyl)cyclohex-yl)-2-(4-fluorophenyl)thiazol-5-yl)phenyl)-N-(2,2,2-trifluoroethyl) azetidine-1-carboxamide] | 1.6 | 110
9 | CC(=O)N1CC(c2ccc(-c3sc(-c4ccc(F)cc4)nc3[C@@H]3CCCC[C@H]3C(=O)NC3(C#N)CC3)cc2)C1 [Example 151, (1R,2R)-2-(5-(4-(1-acetylazetidin-3-yl)phenyl)-2-(4-fluorophenyl)thiazol-4-yl)-N-(1-cyanocyclopropyl) cyclohexanecarbox-amide] | 1.3 | 177
10 | CN(CC(F)(F)F)c1nc([C@@H]2CCCC[C@H]2C(=O)NC2(C#N)CC2)c(-c2ccc(N3CCS(=O)(=O)CC3)cc2)s1 [Example 152, (1R,2R)-N-(1-cyanocyclopropyl)-2-(5-(4-(1,1-dioxidothiomorpho-lino)phenyl)-2-(methyl(2,2,2-trifluoroethyl)amino)thiazol-4-yl)cyclohexane-carboxamide] | 7 | ≥ 10000
11 | N#CC1(NC(=O)[C@@H]2CCCC[C@H]2c2nc(N3CCC(F)(F)C3)sc2-c2ccc(N3CCS(=O)(=O)CC3)cc2)CC1 [Example 153, (1R,2R)-N-(1-cyanocyclopropyl)-2-(2-(3,3-difluoropyrrolidin-1-yl)-5-(4-(1,1-dioxidothiomorpho-lino)phenyl)thiazol-4-yl)cyclohexane-carboxamide] | 3.1 | 1000
12 | N#CC1(NC(=O)[C@@H]2CCCC[C@H]2c2nc([C@@H]3CCOC3)sc2-c2ccc(N3CCS(=O)(=O)CC3)cc2)CC1 [Example 155, (1R,2R)-N-(1-cyanocyclopropyl)-2-(5-(4-(1,1-dioxidothiomorpho-lino)phenyl)-2-((R)-tetrahydrofuran-3-yl)thiazol-4-yl)cyclohexane-carboxamide] | 4 | 1000
13 | N#CC1(NC(=O)[C@@H]2CCCC[C@H]2c2nc(NCC(F)(F)F)sc2-c2ccc(N3CCS(=O)(=O)CC3)cc2)CC1 [Example 156, (1R,2R)-N-(1-cyanocyclopropyl)-2-(5-(4-(1,1-dioxidothiomorpho-lino)phenyl)-2-((2,2,2-trifluoroethyl)amino)thiazol-4-yl)cyclohexane-carboxamide] | 8.8 | ≥ 10000
14 | CC(C)(C)Nc1nc([C@@H]2CCCC[C@H]2C(=O)NC2(C#N)CC2)c(-c2ccc(N3CCS(=O)(=O)CC3)cc2)s1 [Example 157, (1R,2R)-2-(2-(tert-butylamino)-5-(4-(1,1-dioxidothiomorpho-lino)phenyl)thiazol-4-yl)-N-(1-cyanocyclopropyl) cyclohexanecarbox-amide] | 19.4 | ≥ 10000
15 | N#CC1(NC(=O)[C@@H]2CCCC[C@H]2c2nc(C3CCS(=O)(=O)CC3)sc2-c2ccc(N3CCS(=O)(=O)CC3)cc2)CC1 [Example 158, (1R,2R)-N-(1-cyanocyclopropyl)-2-(2-(1,1-dioxidotetrahydro-2H-thiopyran-4-yl)-5-(4-(1,1-dioxidothiomorpho-lino)phenyl)thiazol-4-yl)cyclohexane-carboxamide] | 4.6 | ≥ 10000
16 | CN=S1(=O)CCN(c2ccc(-c3sc(-c4ccc(F)cc4)nc3[C@@H]3CCCC[C@H]3C(=O)NC3(C#N)CC3)cc2)CC1 [Example 160, (1R,2R)-N-(1-cyanocyclopropyl)-2-(2-(4-fluorophenyl)-5-(4-(1-(methylimino)-1-oxidothiomorpholino)phenyl)thiazol-4-yl)cyclohexane-carboxamide] | 1.6 | 3330
17 | CC(C)(c1ccccc1)c1nc([C@@H]2CCCC[C@H]2C(=O)NC2(C#N)CC2)c(-c2ccc(N3CCS(=O)(=O)CC3)cc2)s1 [Example 161, (1R,2R)-N-(1-cyanocyclopropyl)-2-(5-(4-(1,1-dioxidothiomorpho-lino)phenyl)-2-(2-phenylpropan-2-yl)thiazol-4-yl)cyclohexane-carboxamide] | 5.1 | 1000
18 | Cc1nc([C@@H]2CCCC[C@H]2C(=O)NCC#N)c(-c2ccc(N3CCS(=O)(=O)CC3)cc2)o1 [Example 164, (1R,2R)-N-(cyanomethyl)-2-(5-(4-(1,1-dioxidothiomorpho-lino)phenyl)-2-methyloxazol-4-yl)cyclohexane-carboxamide] | 13.8 | ≥ 10000
